# Data published in patent publication US9353107B2 (Aurigene Discovery Technologies Limited, priority 2012, dated 2016).
# Structures can show the parent of a compound that is named as a salt.
# Molecular target: T1, recombinant human ALK enzyme (ALK WT) (Homo sapiens, UniProt Q9UM73)
# T1 construct: purchased Carna Biosciences 08-518
# Assay: ALK WT cell free enzymatic assay (TR-FRET)
# Assay type: biochemical
# Conditions: 1 μM ATP; for IC50: 10 point dose response; for inhibition at 0.1 µM: compound at 100 nM; for inhibition at 0.1 µM / inhibition at 1 µM: 30 min pre-incubation; for inhibition at 1 µM: compound at 1 μM
# Outline: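 Read-out is TR-FRET (665 nm/615 nm ratio) using an Eu-labeled anti-phosphotyrosine antibody. Compound is pre-incubated 30 min with recombinant human ALK, then reacted 30 min with 1 μM ATP and 40 nM Poly GT substrate. Values are percent inhibition at 100 nM and 1 μM, plus IC50 from 10-point variable-slope regression.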
# T1 sequence (Q9UM73 1058-1620 limits assumed): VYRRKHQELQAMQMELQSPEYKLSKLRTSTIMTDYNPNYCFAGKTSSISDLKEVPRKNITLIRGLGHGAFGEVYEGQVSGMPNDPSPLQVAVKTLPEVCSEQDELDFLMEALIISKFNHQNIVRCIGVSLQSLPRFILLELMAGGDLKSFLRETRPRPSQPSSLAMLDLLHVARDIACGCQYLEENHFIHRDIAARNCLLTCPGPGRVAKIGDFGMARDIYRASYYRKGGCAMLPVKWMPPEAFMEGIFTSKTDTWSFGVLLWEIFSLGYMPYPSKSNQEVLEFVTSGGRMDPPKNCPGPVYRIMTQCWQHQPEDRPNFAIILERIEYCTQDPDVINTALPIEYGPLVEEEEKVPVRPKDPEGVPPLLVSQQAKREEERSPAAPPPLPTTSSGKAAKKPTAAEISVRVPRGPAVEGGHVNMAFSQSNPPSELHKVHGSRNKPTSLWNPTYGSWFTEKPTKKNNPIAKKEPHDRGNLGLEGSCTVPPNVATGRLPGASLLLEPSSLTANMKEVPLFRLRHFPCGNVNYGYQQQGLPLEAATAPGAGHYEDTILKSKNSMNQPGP
SMILES,IC50,inhibition at 0.1 µM,inhibition at 1 µM
"Fc1cc(-c2cnc3[nH]cc(-c4cnn(CCc5ccccc5)c4)c3c2)ccc1C1CCNCC1 [Example 167, 5-(3-fluoro-4-(piperidin-4-yl)phenyl)-3-(1-phenethyl-1H-pyrazol-4-yl)-1H-pyrrolo[2,3-b]pyridine]",50 to 250 nM,69%,97%
"Cc1nn(Cc2cccc(C#N)c2)c(C)c1-c1c[nH]c2ncc(-c3ccc(N4CCNCC4)cc3)cc12 [Example 48, 3-((3,5-dimethyl-4-(5-(4-(piperazin-1-yl)phenyl)-1H-pyrrolo[2,3-b]pyridin-3-yl)-1H-pyrazol-1-yl)methyl)benzonitrile hydrochloride]",50 to 250 nM,52%,83%
"Cc1nn(Cc2cccc(F)c2)c(C)c1-c1c[nH]c2ncc(-c3ccc(N4CCOCC4)c(NS(C)(=O)=O)c3)cc12 [Example 59, N-(5-(3-(1-(3-fluorobenzyl)-3,5-dimethyl-1H-pyrazol-4-yl)-1H-pyrrolo[2,3-b]pyridin-5-yl)-2-morpholinophenyl)methanesulfonamide]",50 to 250 nM,49%,77%
"OCCN1CCN(c2ccc(-c3cnc4[nH]cc(-c5cnn(Cc6cccc(F)c6)c5)c4c3)cn2)CC1 [Example 142, 2-(4-(5-(3-(1-(3-fluorobenzyl)-1H-pyrazol-4-yl)-1H-pyrrolo[2,3-b]pyridin-5-yl)pyridin-2-yl)piperazin-1-yl)ethanol]",,94%,100%
"c1ccc(CCn2cc(-c3c[nH]c4ncc(-c5cccc(NC6CCNCC6)c5)cc34)cn2)cc1 [Example 95, N-(3-(3-(1-phenethyl-1H-pyrazol-4-yl)-1H-pyrrolo[2,3-b]pyridin-5-yl)phenyl)piperidin-4-amine]",50 to 250 nM,83%,99%
"COc1cc(N2CCN(C[C@H](C)O)CC2)ccc1-c1cnc2[nH]cc(-c3cnn(Cc4cccc(F)c4)c3)c2c1 [Example 116, (S)-1-(4-(4-(3-(1-(3-fluorobenzyl)-1H-pyrazol-4-yl)-1H-pyrrolo[2,3-b]pyridin-5-yl)-3-methoxyphenyl)piperazin-1-yl)propan-2-ol]",50 to 250 nM,68%,97%
"Fc1cccc(Cn2cc(-c3c[nH]c4ncc(-c5cnc(N6CCNCC6)c(F)c5)cc34)cn2)c1 [Example 173, 5-(5-fluoro-6-(piperazin-1-yl)pyridin-3-yl)-3-(1-(3-fluorobenzyl)-1H-pyrazol-4-yl)-1H-pyrrolo[2,3-b]pyridine]",< 50 nM,92%,98%
"Cc1nn(Cc2cccc(F)c2)c(C)c1-c1c[nH]c2ncc(-c3ccc(N4CCN(CCN(C)C)CC4)cc3)cc12 [Example 57, 2-(4-(4-(3-(1-(3-fluorobenzyl)-3,5-dimethyl-1H-pyrazol-4-yl)-1H-pyrrolo[2,3-b]pyridin-5-yl)phenyl)piperazin-1-yl)-N,N-dimethylethanamine]",< 50 nM,93%,100%
"Cc1nn(Cc2cccc(OC(F)(F)F)c2)c(C)c1-c1c[nH]c2ncc(-c3ccc(N4CCNCC4)cc3)cc12 [Example 52, 3-(3,5-dimethyl-1-(3-(trifluoromethoxy)benzyl)-1H-pyrazol-4-yl)-5-(4-(piperazin-1-yl)phenyl)-1H-pyrrolo[2,3-b]pyridine hydrochloride]",> 250 nM,12%,80%
"Cc1nn(Cc2cccc(F)c2)c(C)c1-c1c[nH]c2ncc(-c3cnc(O)c(NS(C)(=O)=O)c3)cc12 [Example 66, N-(5-(3-(1-(3-fluorobenzyl)-3,5-dimethyl-1H-pyrazol-4-yl)-1H-pyrrolo[2,3-b]pyridin-5-yl)-2-hydroxypyridin-3-yl)methanesulfonamide]",,38%,95%
"Cc1nn(Cc2cccc(F)c2)c(C)c1-c1c(C2CC2)[nH]c2ncc(-c3ccc(N4CCNCC4)cc3)cc12 [Example 63, 2-cyclopropyl-3-(1-(3-fluorobenzyl)-3,5-dimethyl-1H-pyrazol-4-yl)-5-(4-(piperazin-1-yl)phenyl)-1H-pyrrolo[2,3-b]pyridine]",,15%,48%
"Cc1cccc(Cn2cc(-c3c[nH]c4ncc(-c5ccc(N6CCN(C[C@H](C)O)CC6)cc5)cc34)cn2)c1 [Example 119, (S)-1-(4-(4-(3-(1-(3-methylbenzyl)-1H-pyrazol-4-yl)-1H-pyrrolo[2,3-b]pyridin-5-yl)phenyl)piperazin-1-yl)propan-2-ol]",< 50 nM,86%,93%
"COc1ccc(-c2cc3c(-c4c(C)nn(Cc5cccc(F)c5)c4C)c[nH]c3nc2C2CC2)cc1NS(C)(=O)=O [Example 28, N-(5-(6-cyclopropyl-3-(1-(3-fluorobenzyl)-3,5-dimethyl-1H-pyrazol-4-yl)-1H-pyrrolo[2,3-b]pyridin-5-yl)-2-methoxyphenyl)methanesulfonamide]",,14%,49%
"Cc1nn(Cc2cc(F)cc(F)c2)c(C)c1-c1c[nH]c2ncc(-c3ccc(F)c(NS(C)(=O)=O)c3)cc12 [Example 80, N-(5-(3-(1-(3,5-difluorobenzyl)-3,5-dimethyl-1H-pyrazol-4-yl)-1H-pyrrolo[2,3-b]pyridin-5-yl)-2-fluorophenyl)methanesulfonamide]",50 to 250 nM,65%,93%
"CC(C)CN1CCN(c2ccc(-c3cnc4[nH]cc(-c5cnn(Cc6cccc(F)c6)c5)c4c3)cn2)CC1 [Example 152, 3-(1-(3-fluorobenzyl)-1H-pyrazol-4-yl)-5-(6-(4-isobutylpiperazin-1-yl)pyridin-3-yl)-1H-pyrrolo[2,3-b]pyridine]",< 50 nM,80%,100%
"COc1cc(-c2cnc3[nH]cc(-c4c(C)nn(Cc5cccc(F)c5)c4C)c3c2)ccc1N1CCNCC1 [Example 62, 3-(1-(3-fluorobenzyl)-3,5-dimethyl-1H-pyrazol-4-yl)-5-(3-methoxy-4-(piperazin-1-yl)phenyl)-1H-pyrrolo[2,3-b]pyridine hydrochloride]",< 50 nM,87%,100%

# Continued, values first:
IC50,inhibition at 0.1 µM,inhibition at 1 µM,SMILES
< 50 nM,84%,98%,"c1cncc(Cn2cc(-c3c[nH]c4ncc(-c5ccc(C6CCNCC6)cc5)cc34)cn2)c1 [Example 89, 5-(4-(piperidin-4-yl)phenyl)-3-(1-(pyridin-3-ylmethyl)-1H-pyrazol-4-yl)-1H-pyrrolo[2,3-b]pyridine]"
< 50 nM,98%,100%,"Cc1nn(Cc2cccc(F)c2)c(C)c1-c1c[nH]c2ncc(-c3ccc(C4CCNCC4)cc3)cc12 [Example 92, 3-(1-(3-fluorobenzyl)-3,5-dimethyl-1H-pyrazol-4-yl)-5-(4-(piperidin-4-yl)phenyl)-1H-pyrrolo[2,3-b]pyridine]"
< 50 nM,97%,100%,"Fc1cccc(Cn2cc(-c3c[nH]c4ncc(-c5cccc(N6CCNCC6)c5)cc34)cn2)c1 [Example 33, 3-(1-(3-fluorobenzyl)-1H-pyrazol-4-yl)-5-(3-(piperazin-1-yl)phenyl)-1H-pyrrolo[2,3-b]pyridine hydrochloride]"
< 50 nM,90%,98%,"Cc1nn(Cc2cccc(F)c2)cc1-c1c[nH]c2ncc(-c3ccc(C4CCNCC4)c(F)c3)cc12 [Example 166, 5-(3-fluoro-4-(piperidin-4-yl)phenyl)-3-(1-(3-fluorobenzyl)-3-methyl-1H-pyrazol-4-yl)-1H-pyrrolo[2,3-b]pyridine]"
< 50 nM,58%,96%,"CN1CCN(c2ccc(-c3cnc4[nH]cc(-c5cnn(CCc6ccccc6)c5)c4c3)cn2)CC1 [Example 141, 5-(6-(4-methylpiperazin-1-yl)pyridin-3-yl)-3-(1-phenethyl-1H-pyrazol-4-yl)-1H-pyrrolo[2,3-b]pyridine]"
< 50 nM,92%,96%,"Cc1nn(Cc2cccc(F)c2)c(C)c1-c1c[nH]c2ncc(-c3ccc(N4CCN(C[C@H](C)O)CC4)cc3)cc12 [Example 123, (2S)-1-(4-(4-(3-(1-(3-fluorobenzyl)-3,5-dimethyl-1H-pyrazol-4-yl)-1H-pyrrolo[2,3-b]pyridin-5-yl)phenyl)piperazin-1-yl)propan-2-ol]"
< 50 nM,,95%,"COc1ccc(-c2cnc3[nH]cc(-c4c(C)nn(Cc5cccc(F)c5)c4C)c3c2)cc1NS(C)(=O)=O [Example 14, N-(5-(3-(1-(3-fluorobenzyl)-3,5-dimethyl-1H-pyrazol-4-yl)-1H-pyrrolo[2,3-b]pyridin-5-yl)-2-methoxyphenyl)methanesulfonamide]"
< 50 nM,86%,97%,"Cc1nn(Cc2cccc(F)c2)c(C)c1-c1c[nH]c2ncc(-c3ccc(N4CCN(C[C@H](C)O)CC4)nc3)cc12 [Example 161, (2S)-1-(4-(5-(3-(1-(3-fluorobenzyl)-3,5-dimethyl-1H-pyrazol-4-yl)-1H-pyrrolo[2,3-b]pyridin-5-yl)pyridin-2-yl)piperazin-1-yl)propan-2-ol]"
< 50 nM,92%,100%,"Cc1nn(Cc2cccc(F)c2)c(C)c1-c1c[nH]c2ncc(-c3ccc(N4CCNCC4)c(NS(C)(=O)=O)c3)cc12 [Example 58, N-(5-(3-(1-(3-fluorobenzyl)-3,5-dimethyl-1H-pyrazol-4-yl)-1H-pyrrolo[2,3-b]pyridin-5-yl)-2-(piperazin-1-yl)phenyl)methanesulfonamide hydrochloride]"
